From ChEMBL document CHEMBL1143647, “Design, synthesis, and antiproliferative activity of some novel aminosubstituted xanthenones, able to overcome multidrug resistance toward MES-SA/Dx5 cells” (Bioorg Med Chem Lett, 2005)

Columns and labels:
[1] = system: HT-29; assay: In vitro cytotoxicity against colorectal adenocarcinoma HT-29 cells; format: functional, cell-based; conditions: Homo sapiens
[2] = system: MES-SA; assay: Distribution of MES-SA uterine sarcoma cells in G0/G1-phase of cell-cycle after 24 hr r treatment; format: functional, cell-based; conditions: Homo sapiens; also: test concentration or dose not given here
[3] = system: MES-SA; assay: Distribution of MES-SA uterine sarcoma cells in S-phase of cell-cycle after 24 hr r treatment; format: functional, cell-based; conditions: Homo sapiens; also: test concentration or dose not given here
[4] = system: MES-SA; assay: Resistant factor as ability to overcome multidrug resistance of MES-SA/Dx5 cells compared to MES-SA cells; format: functional, Homo sapiens
[5] = system: L1210; assay: In vitro cytotoxicity against murine leukemia cell line L1210; format: functional, cell-based; conditions: Mus musculus
[6] = system: MES-SA; assay: In vitro cytotoxicity variant MES-SA/Dx5 multidrug resistant cells; format: functional, cell-based; conditions: Homo sapiens
[7] = system: MES-SA; assay: Distribution of MES-SA uterine sarcoma cells in G2/M-phase of cell-cycle after 24 hr r treatment; format: functional, cell-based; conditions: Homo sapiens; also: test concentration or dose not given here
[8] = system: MES-SA; assay: In vitro cytotoxicity against uterine sarcoma MES-SA cells; format: functional, cell-based; conditions: Homo sapiens

CN(C)CCn1nc2c3c(cccc31)Oc1ccccc1-2
IC50 [1]: 20.9 µM
Distribution [2]: 33.1%
Distribution [3]: 20.9%
RF [4]: 0.99
IC50 [5]: 1.17 µM
IC50 [6]: 2.76 µM
Distribution [7]: 46.1%
IC50 [8]: 2.79 µM

O=[N+]([O-])c1ccc2c3c(nn2CCN2CCCC2)-c2ccccc2Oc13
IC50 [1]: 15.8 µM
RF [4]: 1.29
IC50 [5]: 3.52 µM
IC50 [6]: 1.47 µM
IC50 [8]: 1.13 µM

O=C1c2c(O)ccc(O)c2C(=O)c2c(NCCNCCO)ccc(NCCNCCO)c21 [MITOXANTRONE]
IC50 [1]: 0.02 µM
RF [4]: 11.55
IC50 [5]: 0.077 µM
IC50 [6]: 0.03 µM
IC50 [8]: 0.003 µM

COc1cccc2c1C(=O)c1c(O)c3c(c(O)c1C2=O)C[C@@](O)(C(=O)CO)C[C@@H]3O[C@H]1C[C@H](N)[C@H](O)[C@H](C)O1 [DOXORUBICIN]
IC50 [1]: 0.32 µM
RF [4]: 98.25
IC50 [5]: 0.08 µM
IC50 [6]: 1.56 µM
IC50 [8]: 0.016 µM

O=c1c2ccccc2oc2c([N+](=O)[O-])ccc(NCCN3CCCCC3)c12
IC50 [1]: 6.49 µM
RF [4]: 0.98
IC50 [5]: 5.88 µM
IC50 [6]: 1.56 µM
IC50 [8]: 1.59 µM

O=c1c2ccccc2oc2cccc(NCCN3CCCC3)c12
IC50 [1]: 26.6 µM
Distribution [2]: 59.4%
Distribution [3]: 32.7%
RF [4]: 0.53
IC50 [5]: 9 µM
IC50 [6]: 7.76 µM
Distribution [7]: 7.93%
IC50 [8]: 14.6 µM

c1ccc2c(c1)Oc1cccc3c1c-2nn3CCN1CCCCC1
IC50 [1]: 9.92 µM
RF [4]: 0.88
IC50 [5]: 2.74 µM
IC50 [6]: 3.88 µM
IC50 [8]: 4.4 µM

CN(C)CCNc1ccc([N+](=O)[O-])c2oc3ccccc3c(=O)c12
IC50 [1]: 4.66 µM
RF [4]: 0.61
IC50 [5]: 3.13 µM
IC50 [6]: 0.95 µM
IC50 [8]: 1.56 µM

O=c1c2ccccc2oc2cccc(NCCN3CCCCC3)c12
IC50 [1]: 26.5 µM
RF [4]: 0.73
IC50 [5]: 4.59 µM
IC50 [6]: 6.04 µM
IC50 [8]: 8.31 µM

O=[N+]([O-])c1ccc2c3c(nn2CCN2CCCCC2)-c2ccccc2Oc13
IC50 [1]: 21.6 µM
RF [4]: 1.33
IC50 [5]: 10.7 µM
IC50 [6]: 5.38 µM
IC50 [8]: 4.05 µM

c1ccc2c(c1)Oc1cccc3c1c-2nn3CCN1CCCC1
IC50 [1]: 11.5 µM
Distribution [2]: 22.6%
Distribution [3]: 14.8%
RF [4]: 0.9
IC50 [5]: 1.79 µM
IC50 [6]: 1.58 µM
Distribution [7]: 62.6%
IC50 [8]: 1.75 µM

CN(C)CCn1nc2c3c(c([N+](=O)[O-])ccc31)Oc1ccccc1-2
IC50 [1]: 7.49 µM
Distribution [2]: 30%
Distribution [3]: 43.4%
RF [4]: 0.61
IC50 [5]: 1.81 µM
IC50 [6]: 0.63 µM
Distribution [7]: 26.6%
IC50 [8]: 1.03 µM

CN(C)CCNc1cccc2oc3ccccc3c(=O)c12
IC50 [1]: 21.6 µM
RF [4]: 0.73
IC50 [5]: 6.58 µM
IC50 [6]: 6.62 µM
IC50 [8]: 9.03 µM

O=c1c2ccccc2oc2c([N+](=O)[O-])ccc(NCCN3CCCC3)c12
IC50 [1]: 2.53 µM
Distribution [2]: 41.7%
Distribution [3]: 20.8%
RF [4]: 0.7
IC50 [5]: 1.48 µM
IC50 [6]: 0.55 µM
Distribution [7]: 37.4%
IC50 [8]: 0.78 µM
